Patent US20240057598A1, “USE OF 2-AMINO-3-METHYLHEXANOIC ACID AS PLANT IMMUNITY INDUCER” (NANJING AGRICULTURAL UNIVERSITY, priority 2020, published 2024)

Experiments:
powdery mildew fungus = test: Induced resistance of wheat to powdery mildew fungus infection; assay type: in vivo
Procedure: 2-amino-3-methylhexanoic acid was dissolved in distilled water and diluted with distilled water into solutions of 1 nM, 10 nM, 100 nM, 1,000 nM and 10,000 nM by gradient, and blank control was additionally set. Wheat seeds were germinated, planted in a sterilized soil culture pot and cultured in a greenhouse at 23(±1)° C. with light for 12 h. When the seedlings grew to the stage of one leaf and one bud, the stems and leaves of the wheat seedlings were sprayed with the 2-amino-3-methylhexanoic acid solutions of the above concentrations. The treatment was repeated once after 24 h and conducted twice in total. After 24 h, fresh wheat powdery mildew spores were evenly scattered on the wheat leaves in three pots, with 20 plants per pot. After 10 days, the disease grade of wheat treated at each concentration was investigated. The disease degree was recorded according to the wheat powdery mildew grading standard in the Guidelines for the Field Efficacy Trials of Pesticides (I), and the disease index and relative immune effect were calculated by a method the same as that for calculating the disease index and relative immune effect of tomato spotted wilt. At the same time, the middle segment of the last but one leaf of wheat was taken and the distribution of mycelia on the wheat leaves was observed by referring to Wolf and Fric's rapid staining method of powdery mildew. Grading standard of wheat powdery mildew (per leaf): • Grade 1: The diseased spot area accounts for 5% or less of the whole leaf area. • Grade 3: The diseased spot area accounts for 6-15% of the whole leaf area. • Grade 5: The diseased spot area accounts for 16-25% of the whole leaf area. • Grade 7: The diseased spot area accounts for 26-50% of the whole leaf area. • Grade 9: The diseased spot area accounts for 50% or more of the whole leaf area.

[1] = system: Pseudomonas syringae PstDC3000; test: Induced resistance of Arabidopsis to Pseudomonas syringae infection; assay type: in vivo; settings: for Number of bacteria in each milligram of leaf: Arabidopsis leaves, 3 days after inoculation; for Decrease of number of bacteria in each milligram of leaf: compared with blank control; for Decrease of disease index: versus blank control
Procedure: 2-amino-3-methylhexanoic acid was dissolved in sterile water and then diluted with sterile water into solutions of 1 nM, 10 nM, 100 nM, 1,000 nM and 10,000 nM by gradient. A blank control was additionally set, and 0.02% Tween 20 was added as a surfactant. Pseudomonas syringae PstDC3000 was spread on an LB plate and cultured at 28° C. for 48 h. Monoclonal colonies were selected and transferred into a 50 mL centrifuge tube containing 2 mL of a culture medium, and cultured on a shaker at 28° C. and 250 rpm. The change of the OD600 value of the bacterial solution was monitored every 1-2 h, and culture of bacteria was stopped before the OD600 value reached 0.8. 1 mL of bacterial solution was transferred into a 1.5 mL sterile centrifuge tube and centrifuged at 8,000 rpm for 2 min, and the precipitate was collected. The supernatant was removed, the precipitate was washed with 10 mM magnesium chloride three times and centrifuged, and finally the PstDC3000 was suspended in 10 mM magnesium chloride to make the OD600 value thereof reach 0.001 for use. Arabidopsis seeds were soaked in 75% alcohol for 3 min, then washed with sterile water 4 times, and sowed in a culture dish containing a ½ MS medium according to 12 seeds per culture dish. The ½ MS culture dish with seeds was vernalized at 4° C. for 3 days to break dormancy, and then placed in a culture room at 24° C. with a light intensity of 100 μEm^−2s^−1 (16 h light/8 h dark). When the seedlings grew for 2 weeks, the 2-amino-3-methylhexanoic acid of different concentrations was slowly poured into the culture dish until the whole Arabidopsis seedlings were submerged, and after 2-3 min, the treatment solution was poured out of the culture dish. The treatment was repeated once after 24 h and conducted twice in total. 24 h after the second treatment, the Arabidopsis leaves were inoculated with the PstDC3000 suspension (OD600=0.01) by the same submergence method. After inoculation, the culture dish was closed with a medical breathable adhesive tape, and placed in the culture room for further culture. 3 days later, the number of bacteria in different treatment groups was determined. The incidence of Arabidopsis was observed. The disease index was calculated by a formula the same as that in Example 1.
Grading standard of disease caused by PstDC3000 (per leaf): • Grade 0: No diseased spot on the leaf surface. • Grade 1: The diseased spot area accounts for 0-10% of the whole leaf area. • Grade 2: The diseased spot area accounts for 10-25% of the whole leaf area. • Grade 3: The diseased spot area accounts for 25-50% of the whole leaf area. • Grade 4: The diseased spot area accounts for 50-75% of the whole leaf area. • Grade 5: The diseased spot area accounts for 75-100% of the whole leaf area.

[2] = system: tea "Baiye 1" cutting seedlings; test: Effect on amino acid content of tea leaves at normal temperature; assay type: in vivo; set-up: Amino acid content of tea leaves: unit not given here; settings: 10 nM, room temperature
Procedure: At normal temperature, the effect of 2-amino-3-methylhexanoic acid on tea quality was determined using “Baiye 1” cutting seedlings as the tea trees tested. Tea seedlings with relatively consistent growth were transplanted into a plastic pot with a diameter of 18 cm and placed in a greenhouse at a temperature of 25° C. and a humidity of 60%-70% for adaptive growth for about a week. Two concentrations of 0 and 10 nM were set in the experiment, and 0.02% Tween 20 was added as a surfactant. 1 week after transplanting, the stems and leaves of the tea seedlings were sprayed once every 24 h, twice in total. After spray, the tea leaves were placed in a greenhouse at 25° C., and samples were taken on the 1st, 3rd, 5th and 7th days to determine the total amino acid content of one leaf and one bud at the top of tea leaves.

Bacillus subtilis = settings: cited from earlier work
Pseudomonas aeruginosa = settings: cited from earlier work
[3] = concentration greater than 1,000 nM, susceptible wheat variety

CCCC(C)C(N)C(=O)O (stereo not shown) [2-amino-3-methylhexanoic acid]
Relative immune effect (powdery mildew fungus; 1 nM, wheat): 3.5%
Relative immune effect (powdery mildew fungus; 10 nM, wheat): 15.56%
Relative immune effect (powdery mildew fungus; 100 nM, wheat): 27.63%
Relative immune effect (powdery mildew fungus; 1,000 nM, wheat): 55.06%
Relative immune effect (powdery mildew fungus; 10,000 nM, wheat): 65.37%
Disease index (powdery mildew fungus; [3]): lower than 50
Relative immune effect (powdery mildew fungus; [3]): more than 50%
Disease index ([1]; 10 nM, Arabidopsis): 45.00 ± 2.78b
Number of bacteria in each milligram of leaf ([1]; 10 nM): 3.81 × 10^5 CPU/mg
Decrease of number of bacteria in each milligram of leaf ([1]; 10 nM): 88.24%
Decrease of disease index ([1]; 10 nM): 42.33
Number of bacteria in each milligram of leaf ([1]; 100 nM): 2.49×10^5 CPU/mg
Decrease of number of bacteria in each milligram of leaf ([1]; 100 nM): 92.31%
Decrease of disease index ([1]; 100 nM): 45.85
Increase of amino acid content compared with control ([2]; 3rd day): 14%
Increase of amino acid content compared with control ([2]; 5th day): 26%
Amino acid content of tea leaves ([2]; day 1): 2.13
Amino acid content of tea leaves ([2]; day 3): 2.44
Amino acid content of tea leaves ([2]; day 5): 2.69
Amino acid content of tea leaves ([2]; day 7): 2.08
Inhibitory effect (Bacillus subtilis): obvious inhibitory effect
Inhibitory effect (Pseudomonas aeruginosa): slight inhibitory effect
